Data as given in patent US12064516B2, “Pharmaceutical formulations and uses thereof” (Aldeyra Therapeutics, Inc., priority 2020, dated 2024).

Assays:
[1] = Tolerability as a systemic dose, I-1 versus ADX-102; type: in vivo
Protocol: Compound I-1 is the des-chloro analog of ADX-102. […] We have therefore investigated compound I-1 in 90-day toxicology studies in rat and dog as well as 10-day studies in man. We compared two data sets to contrast the pharmacokinetics of the two test articles. A 50 mg/kg oral dose PK study of compound I-1 was conducted in Sprague-Dawley rats using methylcellulose suspension. A pharmacokinetic study of ADX-102 was also conducted in Sprague Dawley rats at a dose of 10 mg/kg in a methylcellulose suspension that also contained Tween 80. Both studies also incorporated intravenous administration in captisol for the calculation of clearance and steady state volume of distribution.

[2] = Solubility of I-1 drug substance; type: physicochemical
Excerpt: Spray-drying was selected for formulation of this compound. By co-precipitating the compound with a polymer in a stable amorphous solid dispersion, spray-drying improved the dissolution rates and enhanced the bioavailability. […] This made I-1 an appropriate candidate for the application of formulation through spray drying dispersion (SDD).

[3] = human, in vivo, 10 days
Excerpt: This Phase 1 trial was a first-in-human, randomized, double-blind, placebo-controlled trial with a 3:1 randomization of I-1 and placebo. The trial was comprised of single ascending dose (SAD) and multiple ascending dose (MAD) protocols. MAD drug exposure was 10 days of twice-per-day (BID) administration.
A total of 54 healthy volunteers were randomized across two cohorts of varying doses: 41 subjects received I-1 and 13 subjects received placebo.
Thirty-one (31) subjects were randomized to varying doses: 23 subjects received I-1 and 8 subjects received placebo.

[4] = Pharmacokinetic comparison of ADX-102 (reproxalap) and compound I-1 in rats; type: in vivo, Sprague-Dawley rats; details: Sprague-Dawley, in vivo, SD Rat

CC(C)(O)c1nc2ccccc2cc1N [I-1]
tolerability as a systemic dose compared with ADX-102 [1]: generally better tolerated than ADX-102
solubility in aqueous media [2]: poor solubility in aqueous media
solubility in non-polar solvents [2]: increased solubility in non-polar solvents
Influenza like illness, N subjects [3]: 0
clearance ([4]; intravenous data using captisol formulation): 65.8 mL/min/kg
half-life ([4]; oral gavage 50 mg/kg, 0.5% MC): 2.96 h
